Test results from the NIST ThermoML archive (doi:10.1016/j.jct.2013.10.034).
± gives the expanded uncertainty stated by the source.

Assay: excess molar enthalpy (molar enthalpy of mixing); xn = mol fraction of the nth substance listed
Settings: 298.15 K, 100 kPa, Liquid, Calvet calorimetry

CCCC[N+]1(C)CCCCC1.N#C[N-]C#N [1-butyl-1-methylpiperidinium dicyanamide] + O
Settings | excess molar enthalpy [kcal/mol]
x1 = 0.0639 | -0.0355 ± 0.000574
x1 = 0.0706 | -0.0403 ± 0.000621
x1 = 0.0846 | -0.0509 ± 0.000741
x1 = 0.101 | -0.0634 ± 0.000908
x1 = 0.1186 | -0.0769 ± 0.00105
x1 = 0.1379 | -0.0917 ± 0.00124
x1 = 0.1607 | -0.109 ± 0.00143
x1 = 0.1873 | -0.127 ± 0.00167
x1 = 0.2173 | -0.145 ± 0.00189
x1 = 0.249 | -0.16 ± 0.00208
x1 = 0.2797 | -0.172 ± 0.0022
x1 = 0.3103 | -0.179 ± 0.00229
x1 = 0.3414 | -0.183 ± 0.00234
x1 = 0.371 | -0.185 ± 0.00237
x1 = 0.4062 | -0.184 ± 0.00237
x1 = 0.4376 | -0.181 ± 0.00232
x1 = 0.4741 | -0.176 ± 0.00227
x1 = 0.5173 | -0.167 ± 0.00215
x1 = 0.5418 | -0.162 ± 0.00208
x1 = 0.5687 | -0.155 ± 0.00198
x1 = 0.5984 | -0.146 ± 0.00189
x1 = 0.6314 | -0.136 ± 0.00177
x1 = 0.6683 | -0.124 ± 0.00163
x1 = 0.6951 | -0.115 ± 0.00153
x1 = 0.7241 | -0.105 ± 0.00139
x1 = 0.7557 | -0.0942 ± 0.00127
x1 = 0.7902 | -0.0816 ± 0.0011
x1 = 0.8081 | -0.0749 ± 0.00103
x1 = 0.8268 | -0.0677 ± 0.000932
x1 = 0.8465 | -0.0603 ± 0.00086
x1 = 0.8671 | -0.0529 ± 0.000765
x1 = 0.8887 | -0.0446 ± 0.000669
x1 = 0.9114 | -0.0354 ± 0.00055
x1 = 0.9354 | -0.0256 ± 0.000454
x1 = 0.9606 | -0.0152 ± 0.000335
x1 = 0.9872 | -0.00537 ± 0.000239

CCCC[N+]1(C)CCCC1.N#CN=C=[N-] [1-butyl-1-methylpyrrolidinium dicyanamide] + O
Settings | excess molar enthalpy [kcal/mol]
x1 = 0.0674 | -0.0479 ± 0.000717
x1 = 0.0744 | -0.0542 ± 0.000789
x1 = 0.0892 | -0.0681 ± 0.000956
x1 = 0.1064 | -0.0843 ± 0.00115
x1 = 0.1248 | -0.102 ± 0.00136
x1 = 0.145 | -0.121 ± 0.0016
x1 = 0.1688 | -0.142 ± 0.00184
x1 = 0.1964 | -0.164 ± 0.00213
x1 = 0.2275 | -0.185 ± 0.00237
x1 = 0.2604 | -0.203 ± 0.00263
x1 = 0.2921 | -0.215 ± 0.00263
x1 = 0.3236 | -0.223 ± 0.00287
x1 = 0.3554 | -0.227 ± 0.00287
x1 = 0.3857 | -0.228 ± 0.00287
x1 = 0.4217 | -0.225 ± 0.00287
x1 = 0.4535 | -0.22 ± 0.00287
x1 = 0.4906 | -0.212 ± 0.00263
x1 = 0.5342 | -0.2 ± 0.00263
x1 = 0.5589 | -0.192 ± 0.00239
x1 = 0.5859 | -0.183 ± 0.00234
x1 = 0.6157 | -0.172 ± 0.0022
x1 = 0.6486 | -0.159 ± 0.00206
x1 = 0.6853 | -0.144 ± 0.00186
x1 = 0.7119 | -0.132 ± 0.00172
x1 = 0.7406 | -0.119 ± 0.00158
x1 = 0.7718 | -0.106 ± 0.00141
x1 = 0.8057 | -0.0907 ± 0.00122
x1 = 0.8233 | -0.0828 ± 0.00112
x1 = 0.8417 | -0.0752 ± 0.00103
x1 = 0.8609 | -0.0662 ± 0.000932
x1 = 0.881 | -0.0564 ± 0.000813
x1 = 0.9021 | -0.046 ± 0.000693
x1 = 0.9243 | -0.0352 ± 0.00055
x1 = 0.9475 | -0.0238 ± 0.00043
x1 = 0.9719 | -0.0113 ± 0.000287
x1 = 0.9976 | -0.000599 ± 0.000215
